Measured values reported in ChEMBL document CHEMBL5634084, “Design and optimization of selective and potent CDK9 inhibitors with flavonoid scaffold for the treatment of acute myeloid leukemia” (Eur J Med Chem, 2023).
pIC50: −log10 of the molar value. ≈ marks a conversion by molar mass, not a printed value. Each block holds one molecule with its values, some of them ahead of it. Calls of active or inactive are those of the source. No cut-off for these calls is given here.

Key:
[1] = biological target: CDK2/Cyclin A2 (Homo sapiens) (UniProt P24941+P20248); assay: Inhibition of CDK2/CyclinA2 (unknown origin) at 100 nM by ADP-Glo assay relative to control; assay type: protein-complex assay
[2] = tested on: MV4-11; assay: Antiproliferative activity against human MV4-11 cells assessed as reduction in cell viability measured after 72 hrs; assay type: functional, cell-based; conditions: MV4-11, 72 h
[3] = biological target: CDK9/cyclin T1 (Homo sapiens) (UniProt O60563+P50750); assay: Inhibition of CDK9/CyclinT1 (unknown origin) at 100 nM by ADP-Glo assay relative to control; assay type: protein-complex assay
[4] = tested on: MCF7; assay: Antiproliferative activity against human MCF7 cells assessed as reduction in cell viability measured after 72 hrs; assay type: functional, cell-based; conditions: MCF7, 72 h
[5] = tested on: SW480; assay: Antiproliferative activity against human SW480 cells assessed as reduction in cell viability measured after 72 hrs; assay type: functional, cell-based; conditions: SW480, 72 h
[6] = Metabolic stability of the compound in rat liver microsomes at 10 uM measured for 60 mins in presence of NADPH by LC-MS/MS analysis; assay type: ADME, Microsome; conditions: 1 h
[7] = tested on: HepG2; assay: Antiproliferative activity against human HepG2 cells assessed as reduction in cell viability measured after 72 hrs; assay type: functional, cell-based; conditions: HepG2, 72 h
[8] = tested on: HCT-116; assay: Antiproliferative activity against human HCT-116 cells assessed as reduction in cell viability measured after 72 hrs; assay type: functional, cell-based; conditions: HCT-116, 72 h
[9] = Metabolic stability of the compound in mouse liver microsomes at 10 uM measured for 60 mins in presence of NADPH by LC-MS/MS analysis; assay type: ADME, Microsome; conditions: 1 h
[10] = Toxicity in BALB/c mouse xenografted with human MV4-11 cells assessed as animal's mortality at 10 to 20 mg/kg, iv qd; assay type: organism-based; conditions: in vivo, dose 10-20 mg/kg
[11] = Solubility of the compound in water at pH 7.4; assay type: physicochemical
[12] = Toxicity in BALB/c mouse xenografted with human MV4-11 cells assessed as effect on body weight at 10 to 20 mg/kg, iv qd; assay type: organism-based; conditions: in vivo, dose 10-20 mg/kg
[13] = tested on: MOLM-13; assay: Antiproliferative activity against human MOLM-13 cells assessed as reduction in cell viability measured after 72 hrs; assay type: functional, cell-based; conditions: MOLM-13, 72 h
[14] = biological target: CDK6/cyclin D1 (Homo sapiens, UniProt Q00534); assay: Inhibition of CDK6/CyclinD1 (unknown origin) by ADP-Glo assay; assay type: protein-complex assay
[15] = Cytotoxicity against human HEK293 cells assessed as reduction in cell viability measured after 72 hrs; assay type: toxicity, cell-based
[16] = tested on: MV4-11; assay: Antitumor activity against human MV4-11 cells xenografted in BALB/c mouse assessed as inhibition of tumor growth at 10 mg/kg, iv qd and measured every 2 days; assay type: functional; conditions: MV4-11, 48 h, read-out: TGI
[17] = tested on: THP-1; assay: Antiproliferative activity against human THP-1 cells assessed as reduction in cell viability measured after 72 hrs; assay type: functional, cell-based; conditions: THP-1, 72 h
[18] = tested on: HL-60; assay: Antiproliferative activity against human HL-60 cells assessed as reduction in cell viability measured after 72 hrs; assay type: functional, cell-based; conditions: HL-60, 72 h
[19] = tested on: BT-549; assay: Antiproliferative activity against human BT-549 cells assessed as reduction in cell viability measured after 72 hrs; assay type: functional, cell-based; conditions: BT-549, 72 h
[20] = Inhibition of CDK1/CyclinA2 (unknown origin) by ADP-Glo assay; set-up: species or system Homo sapiens
[21] = biological target: Cyclin-dependent kinase 4/cyclin D1 (Homo sapiens, UniProt P11802); assay: Inhibition of CDK4/CyclinD1 (unknown origin) by ADP-Glo assay; assay type: protein-complex assay
[22] = Metabolic stability of the compound in rat plasma at 10 uM measured for 60 mins by LC-MS/MS analysis; assay type: ADME, cell-free; conditions: 1 h
[23] = tested on: HT-29; assay: Antiproliferative activity against human HT-29 cells assessed as reduction in cell viability measured after 72 hrs; assay type: functional, cell-based; conditions: HT-29, 72 h
[24] = Cytotoxicity against human L02 cells assessed as reduction in cell viability measured after 72 hrs; assay type: toxicity, cell-based
[25] = tested on: MV4-11; assay: Antitumor activity against human MV4-11 cells xenografted in BALB/c mouse assessed as inhibition of tumor growth at 20 mg/kg, iv qd and measured every 2 days; assay type: functional; conditions: MV4-11, 48 h, read-out: TGI
[26] = tested on: A549; assay: Antiproliferative activity against human A549 cells assessed as reduction in cell viability measured after 72 hrs; assay type: functional, cell-based; conditions: A549, 72 h
[27] = biological target: CDK7/Cyclin H/MNAT1 (Homo sapiens, UniProt P50613); assay: Inhibition of CDK7/Cyclin H/MAT1 (unknown origin) by ADP-Glo assay; assay type: protein-complex assay
CDK7/Cyclin H/MNAT1, sequence (P51946 whole entry): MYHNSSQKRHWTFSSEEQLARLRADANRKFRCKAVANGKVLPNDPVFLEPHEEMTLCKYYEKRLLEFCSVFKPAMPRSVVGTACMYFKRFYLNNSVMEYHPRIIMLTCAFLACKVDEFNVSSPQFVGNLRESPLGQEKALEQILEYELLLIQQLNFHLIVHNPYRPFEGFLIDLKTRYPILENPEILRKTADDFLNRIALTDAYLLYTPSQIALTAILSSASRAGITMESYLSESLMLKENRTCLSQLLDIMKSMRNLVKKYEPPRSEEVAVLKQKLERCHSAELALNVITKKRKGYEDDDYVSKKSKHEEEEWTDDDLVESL
CDK7/Cyclin H/MNAT1, sequence (P50613 whole entry): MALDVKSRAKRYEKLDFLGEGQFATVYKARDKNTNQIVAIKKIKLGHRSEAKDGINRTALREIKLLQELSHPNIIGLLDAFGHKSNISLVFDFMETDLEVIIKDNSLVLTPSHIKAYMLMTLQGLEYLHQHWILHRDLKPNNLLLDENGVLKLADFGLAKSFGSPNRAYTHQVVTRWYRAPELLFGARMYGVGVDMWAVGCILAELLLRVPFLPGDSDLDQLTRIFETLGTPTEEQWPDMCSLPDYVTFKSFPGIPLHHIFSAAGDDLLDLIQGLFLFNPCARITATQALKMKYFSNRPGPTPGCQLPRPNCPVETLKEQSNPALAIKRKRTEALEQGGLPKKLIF
CDK7/Cyclin H/MNAT1, sequence (P51948 whole entry, further chain): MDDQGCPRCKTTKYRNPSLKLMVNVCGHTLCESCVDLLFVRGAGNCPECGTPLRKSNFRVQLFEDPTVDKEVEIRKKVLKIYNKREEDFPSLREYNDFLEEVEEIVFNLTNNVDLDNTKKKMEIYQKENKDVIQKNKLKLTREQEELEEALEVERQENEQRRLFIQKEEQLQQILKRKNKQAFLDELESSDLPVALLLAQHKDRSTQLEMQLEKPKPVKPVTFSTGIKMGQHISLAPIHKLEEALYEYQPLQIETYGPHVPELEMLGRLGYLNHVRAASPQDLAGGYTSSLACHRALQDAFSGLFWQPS

CDK6/cyclin D1, sequence (P24385 whole entry): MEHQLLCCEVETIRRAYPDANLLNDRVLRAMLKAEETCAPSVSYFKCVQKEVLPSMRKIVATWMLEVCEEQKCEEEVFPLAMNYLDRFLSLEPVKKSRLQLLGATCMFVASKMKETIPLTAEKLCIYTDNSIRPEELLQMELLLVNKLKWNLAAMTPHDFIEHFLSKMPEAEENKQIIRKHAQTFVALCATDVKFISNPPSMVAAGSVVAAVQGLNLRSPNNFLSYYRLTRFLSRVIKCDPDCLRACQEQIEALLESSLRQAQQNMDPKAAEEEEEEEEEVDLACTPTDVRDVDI
CDK6/cyclin D1, sequence (Q00534 whole entry): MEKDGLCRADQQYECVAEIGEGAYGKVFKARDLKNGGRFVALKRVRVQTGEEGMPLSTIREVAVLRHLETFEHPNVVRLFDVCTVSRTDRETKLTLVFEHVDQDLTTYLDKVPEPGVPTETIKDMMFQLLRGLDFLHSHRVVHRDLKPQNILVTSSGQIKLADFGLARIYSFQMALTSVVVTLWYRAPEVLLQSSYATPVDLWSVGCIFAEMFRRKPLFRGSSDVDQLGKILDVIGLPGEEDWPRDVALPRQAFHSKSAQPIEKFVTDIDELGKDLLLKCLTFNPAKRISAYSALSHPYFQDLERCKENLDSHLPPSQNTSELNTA
Cyclin-dependent kinase 4/cyclin D1, sequence (P11802 whole entry): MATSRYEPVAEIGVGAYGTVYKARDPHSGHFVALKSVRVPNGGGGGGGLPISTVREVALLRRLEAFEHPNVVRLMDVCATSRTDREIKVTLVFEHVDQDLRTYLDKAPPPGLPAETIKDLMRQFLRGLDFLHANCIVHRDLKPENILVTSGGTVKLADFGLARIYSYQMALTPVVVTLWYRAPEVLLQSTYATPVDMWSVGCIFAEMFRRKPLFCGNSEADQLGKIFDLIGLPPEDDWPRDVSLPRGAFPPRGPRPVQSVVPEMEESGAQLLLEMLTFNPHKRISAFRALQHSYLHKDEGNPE
Cyclin-dependent kinase 4/cyclin D1, sequence (P24385 whole entry, further chain): as the sequence (P24385 whole entry) above

inhibition [1]: 5.4% | pIC50 [2]: 6.74 | inhibition [3]: 64.9%
SMILES: COc1cc(O)c2c(=O)cc(-c3ccc(N4CCN(C)CC4)cc3)oc2c1[C@H]1CCN(C)C[C@H]1O

inhibition [1]: inactive | pIC50 [2]: 7.15 | inhibition [3]: 1.4%
SMILES: COc1cc(O)c2c(=O)cc(-c3ccc(N4CCN(C)CC4)cc3)oc2c1[C@H]1CCN(C)[C@@H]1CO

SMILES: COc1cc(O)c2c(=O)cc(-c3ccc(N4CCNCC4)cc3)oc2c1C1=CCN(C)CC1
inhibition [1]: inactive | pIC50 [2]: 6.89 | inhibition [3]: 98.6%

inhibition [1]: 14.2% | pIC50 [2]: 5.69 | inhibition [3]: 75.8%
SMILES: COc1cc(O)c2c(=O)cc(-c3ccc(N4CCN(C)CC4)cc3)oc2c1Oc1c(C)n[nH]c1C

inhibition [1]: inactive | pIC50 [2]: 6.96 | inhibition [3]: 44.4%
SMILES: COc1cc(O)c2c(=O)cc(-c3ccc(N4CCN(C)CC4)cc3)oc2c1N1CCOCC1

inhibition [1]: 18.9% | pIC50 [2]: 6.68 | inhibition [3]: 78%
SMILES: COc1cc(O)c2c(=O)cc(-c3ccc(N4CCCNCC4)cc3)oc2c1N1CCNCC1

inhibition [1]: inactive | pIC50 [2]: 5.69 | inhibition [3]: 5.1%
SMILES: COc1cc(O)c2c(=O)cc(-c3ccc(N4CCN(C)CC4)cc3)oc2c1

inhibition [1]: 24.5% | pIC50 [2]: 6.68 | inhibition [3]: 70%
SMILES: COc1cc(O)c2c(=O)cc(-c3ccc(N4CCN(C)CC4)cc3)oc2c1N1CCC(N2CCOCC2)CC1

SMILES: COc1cc(O)c2c(=O)cc(-c3ccc(N4CCN(C)CC4)cc3)oc2c1N1CCNCC1
pIC50 [4]: 5.82 | pIC50 [5]: 6.00 | Stability [6]: Stable | pIC50 [7]: 5.75 | pIC50 [8]: 6.16 | Stability [9]: Stable | Activity [10]: Non-Toxic | solubility [11]: 450 µg/mL (≈ 999 µM) | Activity [12]: Non-Toxic | pIC50 [13]: 5.95 | pIC50 [14]: 5.65 | IC50 at 72 h [15]: 25500 nM | inhibition in vivo at 10 mg/kg [16]: 48% | pIC50 [17]: 5.37 | pIC50 [18]: 6.92 | inhibition [1]: 8.3% | pIC50 [19]: 5.73 | pIC50 [20]: 5.75 | pIC50 [21]: 6.51 | Stability [22]: Stable | pIC50 [23]: 6.06 | IC50 at 72 h [24]: 17700 nM | pIC50 [2]: 7.10 | inhibition in vivo at 20 mg/kg [25]: 61% | pIC50 [26]: 5.94 | pIC50 [27]: 5.34 | inhibition [3]: 75%

inhibition [1]: 17.5% | pIC50 [2]: 6.77 | inhibition [3]: 74.4%
SMILES: COc1cc(O)c2c(=O)cc(-c3ccc(N4CCOCC4)cc3)oc2c1N1CCNCC1

inhibition [1]: inactive | pIC50 [2]: 5.91 | inhibition [3]: 47.5%
SMILES: COc1cc(O)c2c(=O)cc(-c3ccc(N4CCN(C)CC4)cc3)oc2c1N1CCCCC1

inhibition [1]: 29% | pIC50 [2]: 6.48 | inhibition [3]: 90.9%
SMILES: COc1cc(O)c2c(=O)cc(-c3ccc(N4CCC(N5CCOCC5)CC4)cc3)oc2c1C1=CCN(C)CC1

inhibition [1]: inactive | pIC50 [2]: 7.15 | inhibition [3]: 17.6%
SMILES: COc1cc(O)c2c(=O)cc(-c3ccc(N4CCN(C)CC4)cc3)oc2c1N1CCCC1

SMILES: COc1cc(O)c2c(=O)cc(-c3ccc(N4CCCNCC4)cc3)oc2c1C1=CCN(C)CC1
inhibition [1]: 32.5% | pIC50 [2]: 6.82 | inhibition [3]: 99%

inhibition [1]: inactive | pIC50 [2]: 7.00 | inhibition [3]: 70.8%
SMILES: COc1cc(O)c2c(=O)cc(-c3ccc(N4CCNCC4)cc3)oc2c1N1CCNCC1

inhibition [1]: 4.7% | pIC50 [2]: 6.77 | inhibition [3]: 79.6%
SMILES: COc1cc(O)c2c(=O)cc(-c3ccc(N4CCCC4)cc3)oc2c1N1CCNCC1

inhibition [1]: 23.5% | pIC50 [2]: 7.00 | inhibition [3]: 75.8%
SMILES: COc1cc(O)c2c(=O)cc(-c3ccc(N4CCN(C)CC4)cc3)oc2c1N1CCN(C)CC1

inhibition [1]: 4.7% | pIC50 [2]: 6.51 | inhibition [3]: 78%
SMILES: COc1cc(O)c2c(=O)cc(-c3ccc(N4CCC(N5CCOCC5)CC4)cc3)oc2c1N1CCNCC1
